Test results from ChEMBL document CHEMBL3046383, “Enantioselective Herbicidal Activity of Chiral α-Methylbenzylphenylureas against Cyperaceae and Echinochloa Paddy Weeds” (Biosci Biotechnol Biochem, 1998).
Calls of active or inactive are those of the source. The rule behind the calls is not given here.

Columns and labels:
Cyperus serotinus = experiment: Herbicidal activity against Cyperus serotinus assessed as phytotoxic activity ratings (0- no effect to 5-complete killing rating scale) at 3.1 to 100 g/a measured after 3 weeks post compound treatment under green house conditions; assay type: functional
[1] = test system: Schoenoplectiella juncoides; experiment: Herbicidal activity against Schoenoplectiella juncoides var. Hotarui Ohwi assessed as phytotoxic activity ratings (0- no effect to 5-complete killing rating scale) at 100 g/a measured after 3 weeks post compound treatment under green house conditions; assay type: functional
Cyperus difformis = experiment: Herbicidal activity against Cyperus difformis assessed as phytotoxic activity ratings (0- no effect to 5-complete killing rating scale) at 100 g/a measured after 3 weeks post compound treatment under green house conditions; assay type: functional
Echinochloa oryzicola = experiment: Herbicidal activity against Echinochloa oryzicola assessed as phytotoxic activity ratings (0- no effect to 5-complete killing rating scale) at 100 g/a measured after 3 weeks post compound treatment under green house conditions; assay type: functional
Oryza sativa [2] = experiment: Phytotoxicity against directly seeded Oryza sativa (rice) seedlings assessed as phytotoxic activity ratings (0- no effect to 5-complete killing rating scale) at 100 g/a measured after 3 weeks post compound treatment under green house conditions; assay type: organism-based; conditions: in vivo, 504 h
Oryza sativa [3] = experiment: Phytotoxicity against transplanted Oryza sativa (rice) seedlings assessed as phytotoxic activity ratings (0- no effect to 5-complete killing rating scale) at 100 g/a measured after 3 weeks post compound treatment under green house conditions; assay type: organism-based; conditions: in vivo, 504 h

| Compound | Activity (Cyperus serotinus) | Activity [1] [%] | Activity (Cyperus difformis) [%] | Activity (Echinochloa oryzicola) [%] | Activity (Oryza sativa [2]) [%] | Activity (Oryza sativa [3]) [%] |
| --- | --- | --- | --- | --- | --- | --- |
| C[C@@H](NC(=O)Nc1ccc(F)c(F)c1)c1ccccc1 | inactive | 0 | 0 | 0 | 0 | 0 |
| Cc1ccc(NC(=O)N[C@@H](C)c2ccccc2)c(F)c1 | inactive | 0 | 0 | 0 | 0 | 0 |
| C[C@H](NC(=O)Nc1ccc(I)cc1)c1ccccc1 | inactive | 0 | 0 | 0 | 0 | 0 |
| C[C@H](NC(=O)Nc1ccc(C(F)(F)F)cc1)c1ccccc1 | inactive | 0 | 0 | 0 | 0 | 0 |
| C[C@@H](NC(=O)Nc1cccc(F)c1)c1ccccc1 | inactive | 0 | 10 | 0 | 0 | 0 |
| CC(=O)c1ccccc1NC(=O)N[C@H](C)c1ccccc1 | inactive | 0 | 0 | 0 | 0 | 0 |
| C[C@H](NC(=O)Nc1cc(C(F)(F)F)ccc1F)c1ccccc1 | inactive | 0 | 0 | 0 | 0 | 0 |
| CCCCCCCc1ccc(NC(=O)N[C@@H](C)c2ccccc2)cc1 | inactive | 0 | 0 | 0 | 0 | 0 |
| CCCc1ccc(NC(=O)N[C@@H](C)c2ccccc2)cc1 |  | 0 | 40 | 10 | 0 | 0 |
| CCCCCCCc1ccc(NC(=O)N[C@H](C)c2ccccc2)cc1 | inactive | 0 | 0 | 0 | 0 | 0 |
| CCOC(=O)c1ccccc1NC(=O)N[C@@H](C)c1ccccc1 | inactive | 0 | 0 | 10 | 0 | 0 |
| COc1ccc(NC(=O)N[C@H](C)c2ccccc2)cc1 | inactive | 0 | 0 | 0 | 0 | 0 |
| C[C@@H](NC(=O)Nc1ccc(Cl)cc1)c1ccccc1 | inactive | 0 | 0 | 0 | 0 | 0 |
| C[C@H](NC(=O)Nc1cccc(C(F)(F)F)c1F)c1ccccc1 | inactive | 0 | 0 | 0 | 0 | 0 |
| C[C@H](NC(=O)Nc1ccccc1Cl)c1ccccc1 | inactive | 0 | 10 | 0 | 0 | 0 |
| CCCCCc1ccc(NC(=O)N[C@H](C)c2ccccc2)cc1 | inactive | 0 | 0 | 0 | 0 | 0 |
| C[C@H](NC(=O)Nc1ccc(F)cc1F)c1ccccc1 | inactive | 0 | 0 | 0 | 0 | 0 |
| C[C@@H](NC(=O)Nc1ccccc1Cl)c1ccccc1 | inactive | 0 | 10 | 0 | 0 | 0 |
| C[C@H](NC(=O)Nc1ccc(F)cc1)c1ccccc1 | inactive | 0 | 0 | 0 | 0 | 0 |
| C[C@@H](NC(=O)Nc1ccccc1Br)c1ccccc1 | inactive | 0 | 10 | 0 | 0 | 0 |
| C[C@@H](NC(=O)Nc1cc(F)cc(F)c1)c1ccccc1 | inactive | 0 | 0 | 0 | 0 | 0 |

| Compound | Activity (Cyperus serotinus) | Activity [1] [%] | Activity (Cyperus difformis) [%] | Activity (Echinochloa oryzicola) [%] | Activity (Oryza sativa [2]) [%] | Activity (Oryza sativa [3]) [%] |
| --- | --- | --- | --- | --- | --- | --- |
| C[C@H](NC(=O)Nc1cc(C(C)(C)C)ccc1C(C)(C)C)c1ccccc1 | inactive |  | 0 | 0 | 0 | 0 |
| COc1ccccc1NC(=O)N[C@H](C)c1ccccc1 | inactive | 0 | 0 | 0 | 0 | 0 |
| CC(=O)c1ccccc1NC(=O)N[C@@H](C)c1ccccc1 | inactive | 0 | 0 | 0 | 0 | 0 |
| C[C@@H](NC(=O)Nc1ccc(Cl)c(Cl)c1)c1ccccc1 | inactive | 0 | 0 | 0 | 0 | 0 |
| CCOC(=O)c1ccc(NC(=O)N[C@@H](C)c2ccccc2)cc1 | inactive | 0 | 0 | 0 | 0 | 0 |
| C[C@H](NC(=O)Nc1cccc(Br)c1)c1ccccc1 | inactive | 0 | 10 | 0 | 0 | 0 |
| C[C@H](NC(=O)Nc1cccc(I)c1)c1ccccc1 | inactive | 0 | 10 | 0 | 0 | 0 |
| CC(=O)c1ccc(NC(=O)N[C@@H](C)c2ccccc2)cc1 | inactive | 0 | 0 | 0 | 0 | 0 |
| C[C@H](NC(=O)Nc1cc(F)cc(F)c1)c1ccccc1 | inactive | 0 | 0 | 10 |  | 0 |
| CCOC(=O)c1cccc(NC(=O)N[C@H](C)c2ccccc2)c1 | inactive | 0 | 0 | 0 | 0 | 0 |
| COc1ccc(NC(=O)N[C@@H](C)c2ccccc2)cc1 | inactive | 0 | 0 | 0 | 0 | 0 |
| C[C@@H](NC(=O)Nc1cccc(Cl)c1Cl)c1ccccc1 | inactive | 0 | 0 | 0 | 0 | 0 |
| C[C@H](NC(=O)Nc1ccccc1I)c1ccccc1 | inactive | 0 | 10 | 0 | 0 | 0 |
| C[C@@H](NC(=O)Nc1ccc(C(C)(C)C)cc1)c1ccccc1 | inactive | 0 | 0 | 10 | 0 | 0 |
| CCCCCc1ccc(NC(=O)N[C@@H](C)c2ccccc2)cc1 | inactive | 0 | 0 | 0 | 0 | 0 |
| CCCCCCc1ccc(NC(=O)N[C@@H](C)c2ccccc2)cc1 | inactive | 0 | 0 | 0 | 0 | 0 |
| C[C@H](NC(=O)Nc1ccc(C(C)(C)C)cc1)c1ccccc1 | inactive | 0 | 0 | 10 | 0 | 0 |
| C[C@@H](NC(=O)Nc1ccc(I)cc1)c1ccccc1 | inactive | 0 | 0 | 0 | 0 | 0 |
| C[C@@H](NC(=O)Nc1ccccc1I)c1ccccc1 | inactive |  | 10 | 0 | 0 | 0 |
| C[C@@H](NC(=O)Nc1cccc(C(F)(F)F)c1F)c1ccccc1 | inactive |  | 0 | 0 | 0 | 0 |
| C[C@H](NC(=O)Nc1ccc(Br)cc1)c1ccccc1 | inactive |  | 0 | 0 | 0 | 0 |
